Among the data in ChEMBL document CHEMBL5223128, “Biphenyl-based small molecule inhibitors: Novel cancer immunotherapeutic agents targeting PD-1/PD-L1 interaction” (Bioorg Med Chem, 2022) are IC50 values, retold here.

Test [1] concerns the target T1, Programmed cell death protein 1/Programmed cell death 1 ligand 1 (Homo sapiens, UniProt Q9NZQ7). Briefly: Inhibition of human PD-1/PDL1 protein-protein interaction by HTRF assay. Type of test: protein-complex assay.
The target in test [2] is T1, Programmed cell death protein 1/Programmed cell death 1 ligand 1. Briefly: Inhibition of human PD-1/PDL1 protein-protein interaction. Type of test: protein-complex assay.

T1 sequence (Q15116 whole entry): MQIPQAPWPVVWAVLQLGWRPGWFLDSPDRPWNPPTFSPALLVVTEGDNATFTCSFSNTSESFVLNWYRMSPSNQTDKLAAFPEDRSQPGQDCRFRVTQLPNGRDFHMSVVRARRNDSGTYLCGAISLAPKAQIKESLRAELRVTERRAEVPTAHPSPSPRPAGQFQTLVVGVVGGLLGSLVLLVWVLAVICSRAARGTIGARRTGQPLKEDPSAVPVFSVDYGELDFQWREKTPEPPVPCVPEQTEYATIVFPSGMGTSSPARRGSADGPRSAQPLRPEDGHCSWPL
T1 sequence (Q9NZQ7 whole entry): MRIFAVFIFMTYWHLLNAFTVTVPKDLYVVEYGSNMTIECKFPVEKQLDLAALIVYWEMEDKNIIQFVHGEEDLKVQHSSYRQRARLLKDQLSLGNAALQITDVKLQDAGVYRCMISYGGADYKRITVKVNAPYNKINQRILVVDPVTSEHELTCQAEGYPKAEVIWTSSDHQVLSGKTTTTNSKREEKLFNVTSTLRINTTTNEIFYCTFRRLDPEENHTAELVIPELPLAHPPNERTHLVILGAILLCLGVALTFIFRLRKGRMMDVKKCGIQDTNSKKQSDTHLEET

`N#Cc1c(NC(=O)c2nc3c(s2)CNCC3)cccc1-c1ccc2c(c1)OCC2` had an IC50 in test [1] of no more than 100 nM.
On the same count and under the same terms, the figure for `Cc1c(-c2ccccc2)cccc1-n1cc2c(n1)CNCC2` is no more than 100 nM.
The same measure, in the same setting: next, `Cc1cc(C(=O)Nc2cccc(-c3ccccc3)c2C)ncc1CNCCO`: no more than 10 nM.
On to `COc1cc2oc(-c3cccc(-c4ccccc4)c3C)nc2cc1CNCCO`, for which the IC50 in test [1] is no more than 10 nM.
Still for that read-out and setting: next, `N#Cc1c(NC(=O)c2ccc(CNCCO)cn2)cccc1-c1ccccc1`: no more than 10 nM.
Same read-out and setting: the figure for `Cc1c(-c2ccccc2)cccc1-c1nc2c(s1)CNCC2` is no more than 100 nM.
The same measure, in the same setting: next, `Cc1c(-c2ccccc2)cccc1-c1nc2cc(CNCCO)ccc2o1`: no more than 10 nM; `Cc1c(-c2ccccc2)cccc1-c1cn2nc(CNCCO)cnc2n1`: no more than 100 nM.
In the case of `Cc1c(Nc2nccc3c(CN4CCCCC4C(=O)O)ccnc23)cccc1-c1ccccc1` (stereo not drawn), the IC50 in test [1] is no more than 10 nM.
On the same count and under the same terms, next, `Cc1cc(C(=O)Nc2cccc(-c3ccccc3)c2C)ncc1CN1CCCC[C@H]1C(=O)O`: no more than 10 nM.
Same read-out and setting: the figure for `N#Cc1c(NC(=O)c2nc3c(s2)CNCC3)cccc1-c1ccc2c(c1)OCCO2` is no more than 100 nM; for `Cc1c(-c2ccccc2)cccc1-c1nc2c(o1)CNCC2` it is no more than 100 nM.
The same measure, in the same setting: the figure for `Cc1c(-c2ccccc2)cccc1-c1nc2cc(CN3CCCC[C@H]3C(=O)O)c(OCCCC#N)cc2o1` is no more than 10 nM; for `Cc1c(NC(=O)c2nc3c(s2)CNCC3)cccc1-c1cccc2[nH]ncc12` it is no more than 100 nM.
In test [1], `Cc1c(NC(=O)c2nc3c(s2)CNCC3)cccc1-c1cccc2c1cnn2C` returned an IC50 of no more than 100 nM.
As to `COc1cc(OCc2cccc(-c3ccccc3)c2C)cc(OC)c1CCCC1CC(=O)N1` (stereo not drawn), the IC50 in test [2] was found to be 18 nM; in test [1], 22 nM.
As to `Cc1c(NC(=O)c2nc3c(s2)CNCC3)cccc1-c1ccccc1`, the IC50 in test [1] was no more than 100 nM.
Regarding `Cc1c(C2=CCCCC2)cccc1-c1nc2c(s1)CNCC2`, the IC50 in test [1] was no more than 100 nM.
Still for that read-out and setting: the figure for `Cn1c(C(=O)Nc2cccc(-c3ccc4c(c3)OCCO4)c2C#N)nc2c1CCNC2` is no more than 100 nM; for `Cc1c(Nc2nccc3cc(CNCCO)cnc23)cccc1C1=CCCCC1` it is no more than 10 nM.
Turning to `Cc1c(-c2ccccc2)cccc1-c1nc2ccc(CNCCO)cn2n1`, the IC50 in test [1] is no more than 100 nM.
On the same count and under the same terms, the figure for `COc1cccc(-c2cccc(NC(=O)c3nc4c(s3)CNCC4)c2C)c1F` is no more than 100 nM.
The same measure, in the same setting: next, `N#Cc1c(NC(=O)c2nc3c(s2)CNCC3)cccc1C1=CCCCC1`: no more than 100 nM.
The compound `Cn1cnc2c(-c3cccc(NC(=O)c4ccc(CNCCO)cn4)c3C#N)cccc21` came in with an IC50 in test [1] of no more than 10 nM.
For `N#Cc1c(Nc2nccc3cc(CNCCO)cnc23)cccc1-c1ccccc1`, the IC50 in test [1] is no more than 10 nM.
As for `Cc1c(-c2ccccc2)cccc1-c1nc2c(o1)CCNC2`, in test [1], the half-maximal inhibitory concentration (IC50) was no more than 100 nM.
Still for that read-out and setting: next, `Cc1c(NC(=O)c2nc3c(s2)CNCC3)cc(F)cc1-c1ccc2c(c1)OCCO2`: no more than 100 nM; `COc1cccc(-c2cccc(NC(=O)c3nc4c(s3)CNCC4)c2Cl)c1F`: no more than 100 nM; `N#Cc1c(NC(=O)c2nc3c(s2)CNCC3)cccc1-c1c(F)cccc1F`: no more than 100 nM.
`CCOc1cccc(-c2cccc(-c3nc4c(s3)CNCC4)c2C)c1` came in with an IC50 in test [1] of no more than 100 nM.
Same read-out and setting: the figure for `O=C(Nc1cccc(-c2ccc3c(c2)OCCO3)c1Cl)c1nc2c(s1)CNCC2` is no more than 100 nM.
`Cc1c(-c2ccccc2)cccc1-c1nc2cc(CNCCO)c(OCC#N)cc2o1`: the IC50 in test [1] was no more than 10 nM.
As for `N#Cc1c(Nc2nccc3cc(CNCCO)cnc23)cccc1-c1ccc2c(c1)OCCO2`, the IC50 in test [1] was no more than 10 nM.
In turn, `Cc1c(-c2cccc(C(N)=O)c2)cccc1-c1nc2c(s1)CNCC2` displayed an IC50 in test [1] of no more than 100 nM.
Still for that read-out and setting: next, `COc1cc(OC)c(F)c(-c2cccc(-c3nc4c(s3)CNCC4)c2C)c1F`: no more than 100 nM; `Cc1c(-c2ccccc2)ccnc1-c1nc2c(s1)CNCC2`: no more than 100 nM; `Cc1c(-c2ccccc2)cccc1-c1nc2cc(CNCCO)c(OCCN3CCOCC3)cc2o1`: no more than 10 nM.
For the compound `Cc1cc(C(=O)Nc2cc(F)cc(-c3ccc4c(c3)OCCO4)c2C)ncc1CNCCO`, the IC50 in test [1] is no more than 10 nM.
The same measure, in the same setting: the figure for `COc1cccc(-c2cccc(NC(=O)c3cn4c(n3)CNCC4)c2C#N)c1F` is no more than 100 nM.
The same measure, in the same setting: next, `Cc1c(Nc2nccc3cc(CNCCO)cnc23)cccc1-c1ccc2c(c1)OCCO2`: no more than 10 nM; `N#Cc1c(NC(=O)c2nc3c(s2)CNCC3)cccc1-c1ccccc1`: no more than 100 nM; `N#Cc1c(Nc2nccc3nc(CNCCO)cnc23)cccc1C1=CCCCC1`: no more than 10 nM.
In turn, `Cc1c(-c2ccccc2)cccc1-c1nc2cc(CNCCO)cc(C)c2o1` registered an IC50 in test [1] of no more than 10 nM.
On the same count and under the same terms, next, `Cc1c(NC(=O)c2nc3c(s2)CN(CC(=O)O)CC3)cccc1-c1ccccc1`: no more than 100 nM; `Cc1c(-c2ccc3c(c2)OCCO3)cccc1-c1nc2cc(CNCCO)cc(C)c2o1`: no more than 10 nM.
Same read-out and setting: next, `Cn1ncc2c(-c3cccc(NC(=O)c4nc5c(s4)CNCC5)c3Cl)cccc21`: no more than 100 nM; `N#Cc1c(NC(=O)c2ccc(CNCCO)cn2)cccc1C1=CCCCC1`: no more than 10 nM.
Same read-out and setting: next, `N#Cc1c(-c2ccc3c(c2)OCCO3)cccc1-c1nc2c(Cl)cc(CNCCO)cn2n1`: no more than 100 nM; `N#Cc1c(NC(=O)c2ccc(CNCCO)cn2)cccc1-c1ccc2c(c1)OCCO2`: no more than 10 nM.
As to `Cc1cc(CNCCO)cc2nc(-c3cccc(-c4ccc5c(c4)OCCO5)c3C#N)oc12`, the IC50 in test [1] was no more than 10 nM.
On the same count and under the same terms, the figure for `N#CCc1cc(CNCCO)cn2nc(-c3cccc(-c4ccc5c(c4)OCCO5)c3C#N)nc12` is no more than 100 nM.
Same read-out and setting: the figure for `Cc1c(-c2ccccc2)cccc1-c1cn2cc(CNCCO)ncc2n1` is no more than 100 nM; for `Cc1c(-c2ccccc2)cccc1-c1nc2c(s1)CN(CCCC(=O)O)CC2` it is no more than 100 nM; for `Cc1c(-c2ccccc2)cccc1-c1nc2c(s1)CN(CCO)CC2` it is no more than 100 nM.
`Cc1c(NC(=O)c2nc3c(s2)CNCC3)cccc1-c1ccc2c(c1)OCCO2` gave an IC50 in test [1] of no more than 100 nM.
On the same count and under the same terms, next, `COc1cccc(-c2ccnc(-c3nc4c(s3)CNCC4)c2C)c1`: no more than 100 nM.
For `COc1cccc(-c2cccc(NC(=O)c3nc4c(s3)CNCC4)c2C#N)c1F`, in test [1], the IC50 is no more than 100 nM.
The compound `N#Cc1c(-c2ccc3c(c2)OCCO3)cccc1-c1nc2c(C#N)cc(CNCCO)cn2n1` showed an IC50 in test [1] of no more than 100 nM.
The same measure, in the same setting: the figure for `COc1cccc(-c2cccc(-c3nc4c(s3)CNCC4)c2C)c1` is no more than 100 nM; for `COc1cc(F)cc(-c2cccc(NC(=O)c3nc4c(s3)CNCC4)c2C#N)c1` it is no more than 100 nM.
In test [1], `Cc1c(-c2ccc3c(c2)OCCO3)ccnc1-c1nc2c(s1)CNCC2` showed an IC50 of no more than 100 nM.
`Cc1c(-c2cccc(CC(N)=O)c2)cccc1-c1nc2c(s1)CNCC2` had an IC50 in test [1] of no more than 100 nM.
Same read-out and setting: next, `Cn1c(C(=O)Nc2cccc(-c3ccc4c(c3)OCCO4)c2C#N)nc2c1CCN(CCO)C2`: no more than 100 nM.
Consider `O=C(Nc1cccc(-c2ccccc2)c1Cl)c1nc2c(s1)CNCC2`, for which, in test [1], the IC50 was no more than 100 nM.
As for `Cc1c(-c2ccccc2)cccc1-c1nc2c(CCCC#N)cc(CNCCO)cn2n1`, the IC50 in test [1] is no more than 100 nM.
The same measure, in the same setting: next, `COc1c(CNCCO)cnc2c(Nc3cccc(-c4ccccc4)c3C)nccc12`: no more than 10 nM; `N#Cc1c(NC(=O)c2nc3c(s2)CNCC3)cccc1-c1ccccc1F`: no more than 100 nM.
The same measure, in the same setting: next, `Cc1c(Nc2nccc3cc(CNCCO)cnc23)cccc1-c1ccccc1`: no more than 10 nM; `Cc1c(-c2nc3cc(CNCCO)c(OCC#N)cc3o2)cccc1-c1ccccc1F`: no more than 10 nM.
Still for that read-out and setting: next, `COc1cccc(-c2cccc(NC(=O)c3nc4c(n3C)CCNC4)c2C)c1F`: no more than 100 nM; `Cc1c(-c2ccccc2)cccc1-c1nc2cc(CN3CCCC[C@H]3C(=O)O)c(OCC#N)cc2o1`: no more than 10 nM.
`COc1cc(OC)cc(-c2cccc(-c3nc4c(s3)CNCC4)c2C)c1` returned a 50% inhibitory concentration (IC50) in test [1] of no more than 100 nM.
As for `Cc1c(-c2ccccc2)cccc1-c1nc2cc(CNCCO)nc(C)n2n1`, the IC50 in test [1] was no more than 100 nM.
In test [1], `Cc1c(Nc2nccc3c(CNCCO)ccnc23)cccc1-c1ccc2c(c1)OCCO2` yielded an IC50 of no more than 10 nM.
For `Cc1c(-c2ccccc2)ccnc1-c1nc2c(s1)CN(C1CCC(C(=O)O)CC1)CC2` (stereo not drawn), the IC50 in test [1] was no more than 100 nM.
For the compound `Cc1c(-c2nc3c(s2)CNCC3)cccc1-c1cccc2c1cnn2C`, in test [1], the IC50 is no more than 100 nM.
Same read-out and setting: the figure for `COc1cccc(-c2cccc(NC(=O)c3nc4c(n3C)CCNC4)c2C#N)c1F` is no more than 100 nM; for `N#Cc1c(-c2ccc3c(c2)OCCO3)cccc1-c1nc2c(s1)CNCC2` it is no more than 100 nM; for `Cc1c(-c2ccccc2)cccc1-c1nc2cc(CNCCO)c(OCc3ccccn3)cc2o1` it is no more than 10 nM.
In test [1], `Cc1c(-c2ccc3c(c2)OCCO3)cccc1-c1nc2cc(CN3CCCC[C@H]3C(=O)O)c(OCC#N)cc2o1` gave an IC50 of no more than 10 nM.
In test [1], `Cc1c(-c2ccccc2)cccc1-c1nc2c(s1)CN(C)CC2` returned an IC50 of no more than 100 nM.
Same read-out and setting: next, `Cc1c(-c2ccccc2)cccc1-c1nc2c(CC#N)cc(CNCCO)cn2n1`: no more than 100 nM; `Cc1c(-c2ccccc2)cccc1-c1nc2c(s1)CN(C[C@H](C)O)CC2`: no more than 100 nM.
On to `Cc1c(-c2ccccc2)cccc1-c1nc2c(o1)CCN(C)C2`, for which the IC50 in test [1] is no more than 100 nM.
The same measure, in the same setting: the figure for `Cc1cc(CNCCO)cc2nc(-c3cccc(-c4ccccc4)c3C#N)oc12` is no more than 10 nM.
Still for that read-out and setting: next, `Cn1ncc2c(-c3cccc(NC(=O)c4nc5c(s4)CNCC5)c3C#N)cccc21`: no more than 100 nM.
For `COc1cccc(-c2cccc(NC(=O)c3nc4c(s3)CNCC4)c2C#N)c1`, the IC50 in test [1] was no more than 100 nM.
Still for that read-out and setting: the figure for `Cc1c(-c2ccccc2)cccc1-c1nc2cc(CNCCO)ccn2n1` is no more than 100 nM; for `Cc1c(NC(=O)c2nc3c(s2)CN(CCO)CC3)cccc1-c1ccccc1` it is no more than 100 nM; for `N#Cc1c(NC(=O)c2nc3c(s2)CNCC3)cccc1-c1ccccc1Cl` it is no more than 100 nM.
The same measure, in the same setting: next, `COc1cccc(-c2cccc(NC(=O)c3nc4c(n3C)CCN(CCO)C4)c2C#N)c1F`: no more than 100 nM.
Consider `Cc1c(-c2ccccc2)cccc1-c1nc2c(Cl)cc(CNCCO)cn2n1`, for which the IC50 in test [1] was no more than 100 nM.
